Results reported in publication PMC4854315, “Discovery of a novel allosteric inhibitor-binding site in ERK5: comparison with the canonical kinase hinge ATP-binding site” (Acta Crystallographica. Section D, Structural Biology, 2016).

How the values were obtained:
Assay in all cases: Z'-LYTE kinase panel
Format in all cases: biochemical
MAP4K2 (GCK) = molecular target: T1, MAP4K2 (GCK) (Homo sapiens, UniProt Q12851)
T1 construct: purchased ThermoFisher (SelectScreen, Z'-LYTE)
T1 sequence (Q12851 1-820): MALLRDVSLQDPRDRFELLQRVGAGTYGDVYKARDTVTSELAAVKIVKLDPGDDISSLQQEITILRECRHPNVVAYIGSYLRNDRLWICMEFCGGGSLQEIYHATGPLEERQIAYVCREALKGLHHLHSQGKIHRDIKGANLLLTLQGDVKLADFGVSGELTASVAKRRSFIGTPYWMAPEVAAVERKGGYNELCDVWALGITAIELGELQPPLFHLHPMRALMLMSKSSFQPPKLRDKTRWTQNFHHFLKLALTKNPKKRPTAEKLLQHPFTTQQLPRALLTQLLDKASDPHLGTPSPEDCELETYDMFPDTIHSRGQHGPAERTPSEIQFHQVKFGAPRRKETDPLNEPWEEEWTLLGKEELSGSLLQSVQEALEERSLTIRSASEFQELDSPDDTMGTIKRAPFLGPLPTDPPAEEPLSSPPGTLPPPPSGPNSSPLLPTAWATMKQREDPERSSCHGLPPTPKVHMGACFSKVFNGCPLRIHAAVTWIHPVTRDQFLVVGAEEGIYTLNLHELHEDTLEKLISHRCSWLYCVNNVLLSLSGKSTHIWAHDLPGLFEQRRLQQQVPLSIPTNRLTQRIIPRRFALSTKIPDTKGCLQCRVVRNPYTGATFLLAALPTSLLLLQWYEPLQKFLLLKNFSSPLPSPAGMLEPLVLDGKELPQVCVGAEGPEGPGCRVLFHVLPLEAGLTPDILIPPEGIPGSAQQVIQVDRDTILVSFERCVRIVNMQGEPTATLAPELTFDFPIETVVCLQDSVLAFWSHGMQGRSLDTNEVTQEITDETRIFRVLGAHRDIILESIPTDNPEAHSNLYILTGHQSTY
In short: (§1)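 Readout is percentage inhibition, obtained from the standard Z′-LYTE protocol with test compound present at 10 µM; screened within a panel of 225 kinases.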

MAPK14 (p38 alpha) = molecular target: T2, MAPK14 (p38 alpha) (Homo sapiens, UniProt Q16539); details: 10 µM compound; ATP 100
T2 construct: purchased ThermoFisher (SelectScreen, Z'-LYTE)
T2 sequence (Q16539 whole entry): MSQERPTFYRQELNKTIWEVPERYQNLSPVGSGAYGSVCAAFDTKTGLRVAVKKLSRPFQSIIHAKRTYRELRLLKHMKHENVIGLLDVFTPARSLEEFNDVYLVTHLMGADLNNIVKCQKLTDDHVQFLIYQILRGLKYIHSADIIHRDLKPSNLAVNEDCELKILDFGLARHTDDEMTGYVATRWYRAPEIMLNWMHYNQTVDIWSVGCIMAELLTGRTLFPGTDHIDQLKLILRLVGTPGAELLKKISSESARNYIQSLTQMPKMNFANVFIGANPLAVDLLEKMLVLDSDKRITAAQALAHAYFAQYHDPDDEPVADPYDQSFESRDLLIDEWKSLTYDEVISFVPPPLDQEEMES
In short: as §1

MAP4K4 (HGK) = molecular target: T3, MAP4K4 (HGK) (Homo sapiens, UniProt O95819)
T3 construct: purchased ThermoFisher (SelectScreen, Z'-LYTE)
T3 sequence (O95819 whole entry): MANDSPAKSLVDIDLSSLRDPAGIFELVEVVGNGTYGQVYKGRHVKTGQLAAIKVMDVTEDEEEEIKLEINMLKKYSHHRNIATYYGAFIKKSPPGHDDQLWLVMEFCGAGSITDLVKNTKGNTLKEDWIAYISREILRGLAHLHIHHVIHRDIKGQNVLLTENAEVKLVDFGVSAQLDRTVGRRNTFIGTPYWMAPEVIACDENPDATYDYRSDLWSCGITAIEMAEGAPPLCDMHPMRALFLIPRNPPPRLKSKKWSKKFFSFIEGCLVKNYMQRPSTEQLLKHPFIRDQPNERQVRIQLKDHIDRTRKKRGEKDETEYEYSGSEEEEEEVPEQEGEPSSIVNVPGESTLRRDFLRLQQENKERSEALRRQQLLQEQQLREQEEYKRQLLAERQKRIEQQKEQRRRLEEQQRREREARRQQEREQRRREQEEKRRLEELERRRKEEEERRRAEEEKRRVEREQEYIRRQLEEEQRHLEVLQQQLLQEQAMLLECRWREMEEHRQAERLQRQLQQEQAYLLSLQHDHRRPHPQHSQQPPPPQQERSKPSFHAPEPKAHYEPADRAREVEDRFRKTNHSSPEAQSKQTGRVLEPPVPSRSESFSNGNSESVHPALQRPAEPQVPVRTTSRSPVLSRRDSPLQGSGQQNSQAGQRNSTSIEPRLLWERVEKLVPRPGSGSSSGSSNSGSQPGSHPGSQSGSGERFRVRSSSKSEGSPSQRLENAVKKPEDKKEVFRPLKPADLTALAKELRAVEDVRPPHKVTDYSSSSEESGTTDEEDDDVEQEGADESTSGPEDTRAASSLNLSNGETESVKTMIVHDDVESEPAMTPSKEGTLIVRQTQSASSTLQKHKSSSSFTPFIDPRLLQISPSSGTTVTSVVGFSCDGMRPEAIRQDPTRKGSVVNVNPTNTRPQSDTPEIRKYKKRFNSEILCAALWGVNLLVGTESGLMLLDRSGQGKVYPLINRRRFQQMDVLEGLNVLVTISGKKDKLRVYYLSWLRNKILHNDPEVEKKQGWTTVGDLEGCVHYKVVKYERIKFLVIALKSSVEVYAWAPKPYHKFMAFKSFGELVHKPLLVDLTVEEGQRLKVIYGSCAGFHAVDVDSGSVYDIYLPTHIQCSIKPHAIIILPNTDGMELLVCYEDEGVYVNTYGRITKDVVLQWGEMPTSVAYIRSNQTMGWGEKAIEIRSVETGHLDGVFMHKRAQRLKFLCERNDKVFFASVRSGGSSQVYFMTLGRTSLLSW
In short: as §1

FGFR3 = molecular target: T4, FGFR3 (Homo sapiens, UniProt P22607)
T4 construct: purchased ThermoFisher (SelectScreen, Z'-LYTE)
T4 sequence (P22607 23-806): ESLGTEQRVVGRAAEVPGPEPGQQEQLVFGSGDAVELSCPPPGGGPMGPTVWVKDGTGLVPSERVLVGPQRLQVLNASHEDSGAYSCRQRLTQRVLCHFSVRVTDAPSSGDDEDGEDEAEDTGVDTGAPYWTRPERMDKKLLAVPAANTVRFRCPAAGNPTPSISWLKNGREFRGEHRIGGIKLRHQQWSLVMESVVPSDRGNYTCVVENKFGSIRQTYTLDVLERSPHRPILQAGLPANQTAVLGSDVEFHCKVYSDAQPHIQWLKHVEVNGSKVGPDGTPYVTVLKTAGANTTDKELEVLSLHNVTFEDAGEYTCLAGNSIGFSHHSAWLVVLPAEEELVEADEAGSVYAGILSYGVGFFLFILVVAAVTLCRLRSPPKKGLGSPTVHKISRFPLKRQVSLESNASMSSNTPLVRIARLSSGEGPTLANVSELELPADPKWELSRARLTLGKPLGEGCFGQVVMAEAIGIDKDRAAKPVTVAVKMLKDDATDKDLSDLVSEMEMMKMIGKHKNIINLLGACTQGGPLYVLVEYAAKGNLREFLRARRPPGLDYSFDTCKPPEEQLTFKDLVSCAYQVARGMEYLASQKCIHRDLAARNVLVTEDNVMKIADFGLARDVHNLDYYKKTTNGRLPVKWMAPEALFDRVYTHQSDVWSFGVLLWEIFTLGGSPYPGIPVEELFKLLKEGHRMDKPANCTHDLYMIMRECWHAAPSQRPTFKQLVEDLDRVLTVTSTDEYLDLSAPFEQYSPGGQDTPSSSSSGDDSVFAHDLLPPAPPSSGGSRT
In short: as §1

SNF1LK2 = molecular target: T5, SNF1LK2 (Homo sapiens, UniProt Q9H0K1)
T5 construct: purchased ThermoFisher (SelectScreen, Z'-LYTE)
T5 sequence (Q9H0K1 whole entry): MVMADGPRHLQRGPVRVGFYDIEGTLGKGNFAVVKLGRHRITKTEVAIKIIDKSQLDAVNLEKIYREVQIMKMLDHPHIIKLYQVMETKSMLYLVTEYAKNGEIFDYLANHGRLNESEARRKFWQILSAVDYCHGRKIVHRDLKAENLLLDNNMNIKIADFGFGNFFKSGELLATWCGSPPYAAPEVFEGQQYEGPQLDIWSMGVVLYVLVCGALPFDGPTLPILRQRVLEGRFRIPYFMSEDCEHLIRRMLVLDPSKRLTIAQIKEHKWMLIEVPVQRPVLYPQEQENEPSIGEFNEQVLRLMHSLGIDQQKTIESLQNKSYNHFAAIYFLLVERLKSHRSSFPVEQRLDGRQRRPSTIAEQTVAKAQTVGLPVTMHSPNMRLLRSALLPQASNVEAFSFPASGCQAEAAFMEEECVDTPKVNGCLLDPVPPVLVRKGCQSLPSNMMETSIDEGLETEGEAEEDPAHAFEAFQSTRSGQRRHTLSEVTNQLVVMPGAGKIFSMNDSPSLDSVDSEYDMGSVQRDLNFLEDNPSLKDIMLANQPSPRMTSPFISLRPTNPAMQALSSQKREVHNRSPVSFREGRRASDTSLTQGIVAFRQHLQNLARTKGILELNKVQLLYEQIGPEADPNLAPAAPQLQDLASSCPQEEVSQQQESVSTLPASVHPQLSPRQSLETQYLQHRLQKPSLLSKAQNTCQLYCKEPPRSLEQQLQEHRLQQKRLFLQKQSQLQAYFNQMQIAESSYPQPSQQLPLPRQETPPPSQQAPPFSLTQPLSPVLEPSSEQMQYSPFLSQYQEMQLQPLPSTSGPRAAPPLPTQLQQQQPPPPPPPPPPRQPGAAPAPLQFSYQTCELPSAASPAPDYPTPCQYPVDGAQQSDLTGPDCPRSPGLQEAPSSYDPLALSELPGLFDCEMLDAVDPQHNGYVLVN
In short: as §1

MAPKAPK3 = molecular target: T6, MAPKAPK3 (Homo sapiens, UniProt Q16644)
T6 construct: purchased ThermoFisher (SelectScreen, Z'-LYTE)
T6 sequence (Q16644 whole entry): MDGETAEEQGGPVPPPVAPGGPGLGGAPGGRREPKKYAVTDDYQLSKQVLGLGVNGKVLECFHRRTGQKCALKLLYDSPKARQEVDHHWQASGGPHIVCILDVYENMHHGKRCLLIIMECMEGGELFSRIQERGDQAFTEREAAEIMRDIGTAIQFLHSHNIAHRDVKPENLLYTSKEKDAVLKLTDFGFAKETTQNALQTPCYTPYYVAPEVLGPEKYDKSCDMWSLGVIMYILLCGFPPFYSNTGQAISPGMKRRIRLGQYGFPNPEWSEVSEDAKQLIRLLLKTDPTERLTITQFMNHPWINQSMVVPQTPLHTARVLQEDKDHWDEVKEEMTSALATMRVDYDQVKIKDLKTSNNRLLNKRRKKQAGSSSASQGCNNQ
In short: as §1

CAMK2A (CaMKII alpha) = molecular target: T7, CAMK2A (CaMKII alpha) (Homo sapiens, UniProt Q9UQM7)
T7 construct: purchased ThermoFisher (SelectScreen, Z'-LYTE)
In short: as §1

ITK = molecular target: T8, ITK (Homo sapiens, UniProt Q08881)
T8 construct: purchased ThermoFisher (SelectScreen, Z'-LYTE)
T8 sequence (Q08881 1-620): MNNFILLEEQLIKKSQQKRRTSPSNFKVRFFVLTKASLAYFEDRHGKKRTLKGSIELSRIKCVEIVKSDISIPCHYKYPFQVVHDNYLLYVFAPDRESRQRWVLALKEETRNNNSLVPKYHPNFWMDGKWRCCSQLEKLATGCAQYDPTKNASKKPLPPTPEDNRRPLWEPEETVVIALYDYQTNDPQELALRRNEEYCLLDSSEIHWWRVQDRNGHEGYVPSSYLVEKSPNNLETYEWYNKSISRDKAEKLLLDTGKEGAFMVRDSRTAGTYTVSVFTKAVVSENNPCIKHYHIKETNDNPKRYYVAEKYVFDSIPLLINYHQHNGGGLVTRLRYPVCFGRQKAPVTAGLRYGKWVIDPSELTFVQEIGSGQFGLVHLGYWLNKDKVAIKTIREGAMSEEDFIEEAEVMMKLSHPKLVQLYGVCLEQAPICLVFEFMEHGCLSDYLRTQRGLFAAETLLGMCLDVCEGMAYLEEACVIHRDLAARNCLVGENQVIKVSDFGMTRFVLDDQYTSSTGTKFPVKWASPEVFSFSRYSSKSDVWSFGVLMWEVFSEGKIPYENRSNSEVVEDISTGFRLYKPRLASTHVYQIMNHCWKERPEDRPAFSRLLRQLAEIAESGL
In short: as §1

TYRO3 (RSE) = molecular target: T9, TYRO3 (RSE) (Homo sapiens, UniProt Q06418)
T9 construct: purchased ThermoFisher (SelectScreen, Z'-LYTE)
T9 sequence (Q06418 41-890): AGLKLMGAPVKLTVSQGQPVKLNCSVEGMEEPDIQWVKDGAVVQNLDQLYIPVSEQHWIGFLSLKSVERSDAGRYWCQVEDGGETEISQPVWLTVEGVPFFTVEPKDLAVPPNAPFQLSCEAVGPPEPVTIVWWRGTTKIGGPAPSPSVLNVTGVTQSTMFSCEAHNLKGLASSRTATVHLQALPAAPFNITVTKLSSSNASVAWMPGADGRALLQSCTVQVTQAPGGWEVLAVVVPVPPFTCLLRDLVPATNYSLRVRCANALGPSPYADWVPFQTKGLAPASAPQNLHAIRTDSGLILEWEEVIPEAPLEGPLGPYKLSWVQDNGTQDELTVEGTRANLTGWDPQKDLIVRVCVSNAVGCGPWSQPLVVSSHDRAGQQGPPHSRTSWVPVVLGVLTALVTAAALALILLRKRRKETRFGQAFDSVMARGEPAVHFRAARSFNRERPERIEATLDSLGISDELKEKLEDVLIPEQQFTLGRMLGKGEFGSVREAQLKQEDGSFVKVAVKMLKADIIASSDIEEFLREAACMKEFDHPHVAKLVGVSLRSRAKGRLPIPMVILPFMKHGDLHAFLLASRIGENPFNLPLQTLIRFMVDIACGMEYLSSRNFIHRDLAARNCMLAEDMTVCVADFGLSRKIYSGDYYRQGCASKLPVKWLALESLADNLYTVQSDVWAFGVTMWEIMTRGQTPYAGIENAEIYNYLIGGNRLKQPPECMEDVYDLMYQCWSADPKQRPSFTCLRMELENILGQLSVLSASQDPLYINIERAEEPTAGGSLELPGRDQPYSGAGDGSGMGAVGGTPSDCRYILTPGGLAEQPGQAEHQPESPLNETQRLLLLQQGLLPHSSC
In short: as §1

PRKCG (PKC gamma) = molecular target: T10, PRKCG (PKC gamma) (Homo sapiens, UniProt P05129)
T10 construct: purchased ThermoFisher (SelectScreen, Z'-LYTE)
In short: as §1

TYK2 = molecular target: T11, TYK2 (Homo sapiens, UniProt P29597); details: 10 µM compound, ATP Km app
T11 construct: purchased ThermoFisher (SelectScreen, Z'-LYTE)
In short: as §1

Cc1ncc(-c2nc(Nc3ccc(C(=O)NCCN4CCCCC4)cc3)ncc2F)n1C(C)C [Compound 3]
inhibition at 10 µM (MAP4K2 (GCK)): 77% | inhibition at 10 µM (MAPK14 (p38 alpha)): 22% | inhibition at 10 µM (MAP4K4 (HGK)): 84% | inhibition at 10 µM (FGFR3): 54% | inhibition at 10 µM (SNF1LK2): 88% | inhibition at 10 µM (MAPKAPK3): 18% | inhibition at 10 µM (CAMK2A (CaMKII alpha)): 89% | inhibition at 10 µM (ITK): 88% | inhibition at 10 µM (TYRO3 (RSE)): 92% | inhibition at 10 µM (PRKCG (PKC gamma)): 89% | inhibition at 10 µM (TYK2): 101%

Cc1cc(Nc2nc(N)nn2C(=O)NC(C)C)ccc1Cl [Compound 5]
inhibition at 10 µM (MAP4K2 (GCK)): 50% | inhibition at 10 µM (MAPK14 (p38 alpha)): 26% | inhibition at 10 µM (MAP4K4 (HGK)): -6% | inhibition at 10 µM (FGFR3): 13% | inhibition at 10 µM (SNF1LK2): 74% | inhibition at 10 µM (MAPKAPK3): -5% | inhibition at 10 µM (CAMK2A (CaMKII alpha)): -10% | inhibition at 10 µM (ITK): 10% | inhibition at 10 µM (TYRO3 (RSE)): 14% | inhibition at 10 µM (PRKCG (PKC gamma)): 10% | inhibition at 10 µM (TYK2): > 80% | TYK2 % Inhibition (TYK2; listed as SN1109056190, 10 µM): 94%

XMD8-92 [Compound 2, reference compound]
MAP4K2 (GCK) % Inhibition (MAP4K2 (GCK); 10 µM compound, ATP Km app): 46% | MAPK14 (p38 alpha) % Inhibition (MAPK14 (p38 alpha)): 99% | MAP4K4 (HGK) % Inhibition (MAP4K4 (HGK); 10 µM compound, ATP Km app): 84% | FGFR3 % Inhibition (FGFR3; 10 µM compound, ATP Km app): 9% | SNF1LK2 % Inhibition (SNF1LK2; 10 µM compound, ATP Km app): 62% | MAPKAPK3 % Inhibition (MAPKAPK3; 10 µM compound, ATP Km app): 96% | CAMK2A (CaMKII alpha) % Inhibition (CAMK2A (CaMKII alpha); 10 µM compound, ATP Km app): 59% | ITK % Inhibition (ITK; 10 µM compound, ATP Km app): 18% | TYRO3 (RSE) % Inhibition (TYRO3 (RSE); 10 µM compound, ATP Km app): 9% | PRKCG (PKC gamma) % Inhibition (PRKCG (PKC gamma); 10 µM compound, ATP Km app): 62% | TYK2 % Inhibition (TYK2): 36%
